In patent US9341616B2, “Sweet taste receptor chimeric proteins and use thereof” (AJINOMOTO CO., INC., priority 2014, dated 2016):
Residues, ends and D or L forms follow the SMILES beside them.

Biological target: T1, hT1R2/mT1R3 (UniProt Q8TE23+Q925D8)
T1 construct: expressed in transfected cells; host or cells: HEK293E
T1 sequence (Q8TE23 20-839): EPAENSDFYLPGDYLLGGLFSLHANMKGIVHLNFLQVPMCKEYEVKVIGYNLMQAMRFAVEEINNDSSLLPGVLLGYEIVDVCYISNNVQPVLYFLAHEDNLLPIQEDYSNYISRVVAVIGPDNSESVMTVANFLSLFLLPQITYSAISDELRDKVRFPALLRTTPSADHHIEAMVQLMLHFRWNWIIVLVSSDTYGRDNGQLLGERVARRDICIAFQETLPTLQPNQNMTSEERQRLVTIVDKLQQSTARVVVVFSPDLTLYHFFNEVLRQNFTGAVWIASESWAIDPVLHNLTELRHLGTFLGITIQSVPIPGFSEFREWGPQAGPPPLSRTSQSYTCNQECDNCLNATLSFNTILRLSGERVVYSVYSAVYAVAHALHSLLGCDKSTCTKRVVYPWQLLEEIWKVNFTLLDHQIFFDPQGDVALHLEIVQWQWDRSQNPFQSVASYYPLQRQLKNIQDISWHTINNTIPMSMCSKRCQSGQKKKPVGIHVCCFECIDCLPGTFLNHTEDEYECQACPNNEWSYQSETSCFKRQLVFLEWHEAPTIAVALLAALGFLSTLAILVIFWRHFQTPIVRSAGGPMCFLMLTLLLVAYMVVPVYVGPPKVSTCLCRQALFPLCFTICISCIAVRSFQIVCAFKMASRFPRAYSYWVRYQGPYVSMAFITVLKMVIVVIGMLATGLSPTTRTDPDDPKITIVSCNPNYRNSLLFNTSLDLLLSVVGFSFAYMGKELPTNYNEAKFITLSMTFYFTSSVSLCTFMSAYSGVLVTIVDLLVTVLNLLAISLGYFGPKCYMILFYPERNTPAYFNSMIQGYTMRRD
T1 sequence (Q925D8 21-858): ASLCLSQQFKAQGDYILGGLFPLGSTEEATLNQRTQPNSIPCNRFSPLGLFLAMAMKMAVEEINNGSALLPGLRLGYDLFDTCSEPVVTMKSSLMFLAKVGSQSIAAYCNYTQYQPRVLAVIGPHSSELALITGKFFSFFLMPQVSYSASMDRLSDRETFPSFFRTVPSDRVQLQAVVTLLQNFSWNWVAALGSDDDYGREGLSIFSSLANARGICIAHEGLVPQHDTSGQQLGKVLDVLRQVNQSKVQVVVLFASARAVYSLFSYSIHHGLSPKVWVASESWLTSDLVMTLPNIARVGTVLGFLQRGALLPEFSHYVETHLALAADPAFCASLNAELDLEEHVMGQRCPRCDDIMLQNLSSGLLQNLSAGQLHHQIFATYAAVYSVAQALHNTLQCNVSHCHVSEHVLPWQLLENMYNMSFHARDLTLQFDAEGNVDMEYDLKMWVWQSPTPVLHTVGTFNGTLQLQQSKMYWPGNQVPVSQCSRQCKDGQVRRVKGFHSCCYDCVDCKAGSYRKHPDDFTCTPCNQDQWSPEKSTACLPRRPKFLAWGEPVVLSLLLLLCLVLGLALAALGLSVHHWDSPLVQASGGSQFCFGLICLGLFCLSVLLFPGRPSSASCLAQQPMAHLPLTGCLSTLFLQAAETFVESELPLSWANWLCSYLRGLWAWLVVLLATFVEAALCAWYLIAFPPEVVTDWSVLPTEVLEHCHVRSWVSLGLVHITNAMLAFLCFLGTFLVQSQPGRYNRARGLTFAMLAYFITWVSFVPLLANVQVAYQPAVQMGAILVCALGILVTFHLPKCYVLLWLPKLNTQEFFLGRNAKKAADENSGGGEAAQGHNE
Experiment: Intracellular calcium assay (ΔF/F, S/N ratio) in HEK293E cells expressing hT1R2 and mT1R3 with Gα15-trans48LD
Format: cell-based, human/mouse

[1] = Table 3, genes hT2/mT3 (hT1R2, mT1R3)
[2] = Table 4, genes hT2/mT3 (hT1R2, mT1R3)

Method: The HEK293E cells maintained by using the DMEM/Ham's F-12 medium (Nakarai Tesque) containing 10% fetal bovine serum ([sequence]) and 1% Pen Strep (GIBCO) were washed with D-PBS(−) (Nakarai Tesque), and collected from the flask by using 0.25% Trypsin EDTA (GIBCO). The cells were centrifuged (1,200 rpm, 3 minutes), and after the supernatant was removed, suspended in 5% FBS DMEM/Ham's F-12 at a density of 0.75×10^7 cell/ml. This suspension (10 ml) was put into a 150 cm^3 flask (IWAKI), and culture was performed overnight (37° C., 5% CO2). On the next day, the medium was exchanged with Opti-MEM (30 ml, Invitrogen, Life Technologies), a sweet taste receptor gene mixture (Gα15-trans48LD gene, various kinds of T1R2 chimeric genes, and various kinds of T1R3 chimeric genes, 63.8 μg in total) prepared by using Opti-MEM and Lipofectamin 2000 (Invitrogen, Life Technologies) was slowly added to the cell suspension, and incubation was performed (37° C., 5% CO2) for 6 hours to attain gene transfer.
After the gene transfer, the cells were washed with D-PBS(−), then removed from the flask by using 0.25% Trypsin EDTA (GIBCO), and collected. After the cell number was counted, the cells were suspended in the 5% FBS DMEM medium (2.78 mM glucose, GIBCO) at a density of 0.5×10^6 cell/ml. This cell suspension was put into wells of D-Lysine coat 96-well plate (BD bioscience) in such a volume that the cell count is 7.0×10^4 cells/well, and the cells were cultured overnight.
After the culture, all the medium of the 96 wells were discarded. 200 μl of the staining solution for measurement of intracellular calcium ion′ Calcium Assay Kit Express (Molecular Device), diluted 80 times with an assay buffer (20 mM HEPES, 146 mM NaCl, 1 mM MgSO4, 1.39 mM glucose, 1 mM CaC12, 2.5 mM Probenecid, 0.05% bovine serum albumin) was added to each well, and the plate was left standing at 37° C. for 30 minutes and at room temperature for 45 minutes to perform staining. After the staining, 50 μl of a solution of stimulant (sweet taste substance) prepared with the assay buffer was added to each well, and the fluorescence value was measured for 120 seconds after the stimulation by using FDSSμEELL (Hamamatsu Photonics). By measuring the fluorescence value (Ex. 480 nm, Em. 540 nm) before and after the stimulation, the change of the intracellular free calcium ion concentration caused by addition of the stimulant via a sweet taste receptor was quantitatively investigated. The measurement and analysis of the fluorescence value was performed by using the software attached to FDSSμEELL (FDSS7000EX), and ΔF/F value was calculated in accordance with the following equation, and used for the evaluation. ΔF/F=(Maximum fluorescence value after stimulation−Minimum fluorescence value after stimulation)/(Fluorescence value before stimulation)
Furthermore, by using the ΔF/F values obtained when each sweet taste substance was added, the S/N ratio was calculated. Specifically, the S/N value was calculated by using the minimum value of ΔF/F obtained when each substance was added at various concentrations as noise (N) value, and the similarly obtained maximum value of ΔF/F as the signal (S) value, and used as an index for sensitivity of the measurement of the activity of each receptor. That is, a higher S/N value means a higher sensitivity for detection of an interaction of a sweet taste receptor and a test substance, which makes it easier to detect stimulation with a sweet taste substance or sweet taste-regulating substance of a lower concentration.

Compound | S/N [1] | S/N [2]
OC[C@H]1O[C@H](O[C@]2(CCl)O[C@H](CCl)[C@@H](O)[C@@H]2O)[C@H](O)[C@@H](O)[C@H]1Cl [Sucralose, sucralose] | 4.0 | 4.0
CC1=CC(=O)NS(=O)(=O)O1 [Acesulfame K, acesulfame potassium] | 2.4 | 2.4
COC(=O)[C@H](Cc1ccccc1)NC(=O)[C@H](CC(=O)O)NCCCc1ccc(OC)c(O)c1 [Advantame, advantame] | 4.6 | 4.6
OC[C@H]1O[C@@](CO)(O[C@H]2O[C@H](CO)[C@@H](O)[C@H](O)[C@H]2O)[C@@H](O)[C@@H]1O [Sucrose, sucrose] | 2.4 | 2.4
COC(=O)[C@H](Cc1ccccc1)NC(=O)[C@H](CC(=O)O)NCCC(C)(C)C [Neotame, neotame] | 3.4 | 3.4
C[C@H](NC(=Nc1ccc(C#N)cc1)NCC(=O)O)c1ccccc1 [SC-45647, [3-[(S)-1-phenylethyl]-2-(4-cyanophenyl)guanidino]acetic acid] | 3.9 | 3.9
O=C1NS(=O)(=O)c2ccccc21.[Na] [Saccharin Na, sodium saccharin] | 2.8 | 2.8
COC(=O)[C@H](Cc1ccccc1)NC(=O)[C@@H](N)CC(=O)O [Aspartame, aspartame] (HELM PEPTIDE1{D.F.[CO[*:1]]}$$$$V2.0) | 2.3 | 2.3
